Among the data in US10676468B2, “N-(3-heteroarylaryl)-4-arylarylcarboxamides and analogs as hedgehog pathway inhibitors and use thereof” (IMPACT Therapeutics, Inc., priority 2012, dated 2020) are IC50 values, retold here.

Structures can show the parent of a compound that is named as a salt.

For the first assay, the system named is Hedgehog Signaling Pathway. The assay can be described thus: Gli-Luc reporter gene cell assay in C3H10T1/2/Gli-Luc cells stimulated with Shh. Format: cell-based, mouse. Conditions: 30 nM Shh, 24 hours, luciferase activity (RLU), read-out: IC50 values of compounds that inhibit Hh pathway. The text has this: The Application of Reporter Gene Cell Assay for the Determination of the Inhibitory Activity of N-(3-(1H-benzo[d]imidazol-2-yl)-4-chlorophenyl)-2-methyl-4-((2S,6R)-2,6-dimethylmorpholino) benzamide and Analogs on Hedgehog Signaling Pathway
The binding of Sonic hedgehog (Shh) to its receptor Patched 1 initiates numerous intracellular signal transmission, and leads to the nuclear translocation of Gli and the elevated transcription of Gli target genes. When C3H10T1/2 cells are stably transfected with the Gli-Luc plasmids containing the luciferase gene under the control of Gli response element and stimulated with Shh, the expression of luciferase is elevated. Luciferase activity is indicative of the hedgehog signaling pathway activity. Therefore, the inhibitory activity of compounds on hedgehog signaling pathway can be measured using the luciferase activity when the transfected cells are stimulated with Shh.
The day before experiment, C3H10T1/2/Gli-Luc cells in log phase of growth were seeded into 96 well plate at a density of 20000 cells per well. The cells were maintained in DMEM (Hyclone) supplemented with 10% FBS (Hyclone) and incubated at 37° C. with 5% CO2 overnight. The compounds to be examined were diluted into 7 different concentrations by series of dilutions (⅓ and 1/10), and the eighth point of concentration is the DMSO control. Those solutions were diluted 100-fold in the fresh growth medium. The cells were taken out of the incubator and the medium of cultured cells were removed. Then, each well was added in an orderly manner with 80 μL of fresh growth medium, 20 μL of medium pre-dilution of positive compound and compounds to be tested, as well as 100 μL of growth medium containing 30 nM of Shh. The cells are returned to the incubator, and incubated for 24 hours.
Measurement of luciferase activity: After taking the 96 well plate out of the incubator, the supernatants were discarded and the cells were washed twice with PBS. Thereafter, each well was dispensed with 20 μL of lysis buffer (Promega E1531), and the plate was shaken for 30 min at room temperature. Following transferring 5 μL of cell lysate into 384 well plate (Greiner 781074), adding 25 μL of luciferase reaction buffer (Promega E1501) into each well and mixing the plate, the relative light unit (RLU) was immediately captured by VarioSkan Flash.
The data were analyzed with Prism 5 software (GraphPad). The relative light unit (RLU) was plotted against the log concentration of testing compound, and the obtained plot was fitted with non-linear curve fitting equation to calculate IC50 values. The curve fitting equation is Y (RLU)=Bottom+(Top−Bottom)/(1+10^((X−Log IC50))). X is the logarithm of concentration. Y is the measure of relative light unit (RLU).
The calculated IC50 value is a measurement of the inhibitory activity of compound to Hh pathway.
For `C[C@@H]1CN(c2ccc(C(=O)Nc3ccc(Cl)c(-c4ncc(-c5ccsc5)[nH]4)c3)c(C(F)(F)F)c2)C[C@H](C)N1C` [Example 164, N-(3-(5-(thiophen-3-yl)-1H-imidazol-2-yl)-4-chlorophenyl)-2-(trifluoromethyl)-4-((3S,5R)-3,4,5-trimethylpiperazin-1-yl) benzamide Dihydrochloride], the IC50 is 0.24 nM. Regarding `C[C@@H]1CN(c2ccc(C(=O)Nc3ccc(Cl)c(-c4nc5cscc5[nH]4)c3)c(C(F)(F)F)c2)C[C@H](C)N1C` [Example 200, N-(3-(1H-thieno[3,4-d]imidazol-2-yl)-4-chlorophenyl)-2-(trifluoromethyl)-4-((3S,5R)-3,4,5-trimethylpiperazin-1-yl) Benzamide], the IC50 turned out to be 0.28 nM.

Still in this assay, the particulars now being: Mus musculus, C3H 10T1/2, 24 h, 30 nM Shh, luciferase activity (RLU), read-out: IC50 values of compounds that inhibit Hh pathway.
As for `C[C@@H]1CN(c2cc(Cl)c(C(=O)Nc3ccc(Cl)c(-c4ncc(-c5ccsc5)[nH]4)c3)cc2F)C[C@H](C)N1C` [Example 142, N-(3-(5-(thiophen-3-yl)-1H-imidazol-2-yl)-4-chlorophenyl)-2-chloro-5-fluoro-4-((3S,5R)-3,4,5-trimethylpiperazin-1-yl)benzamide], the IC50 stood at 0.28 nM. Consider `CCN1[C@H](C)CN(c2ccc(C(=O)Nc3ccc(Cl)c(-c4ncc(-c5ccco5)[nH]4)c3)c(Cl)c2)C[C@@H]1C` [Example 150, N-(3-(5-(furan-2-yl)-1H-imidazol-2-yl)-4-chlorophenyl)-2-chloro-4-((3S,5R)-4-ethyl-3,5-dimethylpiperazin-1-yl)benzamide], for which the IC50 was found to be 0.5 nM. Still for that read-out and setting: with `Cc1ccc(-c2cnc(-c3cc(NC(=O)c4ccc(N5C[C@@H](C)N(C)[C@@H](C)C5)cc4Cl)ccc3Cl)[nH]2)o1` [Example 151, N-(3-(5-(5-methylfuran-2-yl)-1H-imidazol-2-yl)-4-chlorophenyl)-2-chloro-4-((3S,5R)-3,4,5-trimethylpiperazin-1-yl)benzamide] the figure was 2 nM. `Cc1ccc(-c2cnc(-c3cc(NC(=O)c4ccc(N5C[C@@H](C)N(C)[C@@H](C)C5)cc4C)ccc3Cl)[nH]2)o1` [Example 152, N-(3-(5-(5-methylfuran-2-yl)-1H-imidazol-2-yl)-4-chlorophenyl)-2-methyl-4-((3S,5R)-3,4,5-trimethylpiperazin-1-yl)benzamide]: the IC50 amounted to 1.2 nM. Consider `Cc1cc(N2C[C@@H](C)N(C)[C@@H](C)C2)ccc1C(=O)Nc1ccc(Cl)c(-c2ncc(-c3cccn3C)[nH]2)c1` [Example 161, N-(3-(5-(1-methyl-1H-pyrrol-2-yl)-1H-imidazol-2-yl)-4-chlorophenyl)-2-methyl-4-((3S,5R)-3,4,5-trimethylpiperazin-1-yl)benzamide], for which the IC50 was 0.38 nM. The same measure, in the same setting: with `C[C@@H]1CN(c2ccc(C(=O)Nc3ccc(Cl)c(-c4ncc(-c5cccn5C)[nH]4)c3)c(Cl)c2)C[C@H](C)N1C` [Example 162, N-(3-(5-(1-methyl-1H-pyrrol-2-yl)-1H-imidazol-2-yl)-4-chlorophenyl)-2-chloro-4-((3S,5R)-3,4,5-trimethylpiperazin-1-yl)benzamide] the figure was 0.3 nM; with `CCN1[C@H](C)CN(c2ccc(C(=O)Nc3ccc(Cl)c(-c4ncc(-c5ccsc5)[nH]4)c3)c(Cl)c2)C[C@@H]1C` [Example 165, N-(3-(5-(thiophen-3-yl)-1H-imidazol-2-yl)-4-chlorophenyl)-2-chloro-4-((3S,5R)-4-ethyl-3,5-dimethylpiperazin-1-yl)benzamide Dihydrochloride], 0.19 nM; with `CCc1cnc(-c2cc(NC(=O)c3ccc(N4C[C@@H](C)N(C)[C@@H](C)C4)cc3C(F)(F)F)ccc2Cl)[nH]1` [Example 167, N-(3-(5-ethyl-1H-imidazol-2-yl)-4-chlorophenyl)-2-(trifluoromethyl)-4-((3S,5R)-3,4,5-trimethylpiperazin-1-yl)benzamide], 28 nM.

Regarding `CCc1cnc(-c2cc(NC(=O)c3ccc(N4C[C@@H](C)N(C)[C@@H](C)C4)c(F)c3C)ccc2Cl)[nH]1` [Example 168, N-(3-(5-ethyl-1H-imidazol-2-yl)-4-chlorophenyl)-2-methyl-3-fluoro-4-((3S,5R)-3,4,5-trimethylpiperazin-1-yl)benzamide], the IC50 is 0.38 nM.

Consider `CCc1cnc(-c2cc(NC(=O)c3ccc(N4C[C@@H](C)N(CC)[C@@H](C)C4)cc3Cl)ccc2Cl)[nH]1` [Example 169, N-(3-(5-ethyl-1H-imidazol-2-yl)-4-chlorophenyl)-2-chloro-4-((3S,5R)-4-ethyl-3,5-dimethylpiperazin-1-yl)benzamide], for which the IC50 is 0.67 nM.

Consider `CC(C)c1cnc(-c2cc(NC(=O)c3ccc(N4C[C@@H](C)N(C)[C@@H](C)C4)cc3C(F)(F)F)ccc2Cl)[nH]1` [Example 171, N-(3-(5-isopropyl-1H-imidazol-2-yl)-4-chlorophenyl)-2-(trifluoro-methyl)-4-((3S,5R)-3,4,5-trimethylpiperazin-1-yl)benzamide], for which the IC50 is 0.46 nM. For `Cc1cnc(-c2cc(NC(=O)c3ccc(N4C[C@@H](C)N(C)[C@@H](C)C4)cc3C)ccc2Cl)[nH]1` [Example 186, N-(3-(5-methyl-1H-imidazol-2-yl)-4-chlorophenyl)-2-methyl-4-((3S,5R)-3,4,5-trimethylpiperazin-1-yl)benzamide Dihydrochloride], the IC50 worked out at 3.4 nM.

Take `CCc1cnc(-c2cc(NC(=O)c3ccc(N4C[C@@H](C)N(C)[C@@H](C)C4)cc3C)ccc2Cl)[nH]1` [Example 187, N-(3-(5-ethyl-1H-imidazol-2-yl)-4-chlorophenyl)-2-methyl-4-((3S,5R)-3,4,5-trimethylpiperazin-1-yl)benzamide Dihydrochloride]: the IC50 was determined as 0.45 nM. For `CCc1cnc(-c2cc(NC(=O)c3ccc(N4C[C@@H](C)N(C)[C@@H](C)C4)cc3Cl)ccc2Cl)[nH]1` [Example 188, N-(3-(5-ethyl-1H-imidazol-2-yl)-4-chlorophenyl)-2-chloro-4-((3S,5R)-3,4,5-trimethylpiperazin-1-yl)benzamide Dihydrochloride], the IC50 was determined as 1 nM. With `Cc1c(C(=O)Nc2ccc(Cl)c(-c3ncc(C(C)C)[nH]3)c2)ccc(N2C[C@@H](C)N(C)[C@@H](C)C2)c1F` [Example 190, N-(3-(5-isopropyl-1H-imidazol-2-yl)-4-chlorophenyl)-2-methyl-3-fluoro-4-((3S,5R)-3,4,5-trimethylpiperazin-1-yl)benzamide Dihydrochloride], the IC50 was found to be 0.2 nM. Turning to `CC(C)c1cnc(-c2cc(NC(=O)c3cc(F)c(N4C[C@@H](C)N(C)[C@@H](C)C4)cc3Cl)ccc2Cl)[nH]1` [Example 191, N-(3-(5-isopropyl-1H-imidazol-2-yl)-4-chlorophenyl)-2-chloro-5-fluoro-4-((3S,5R)-3,4,5-trimethylpiperazin-1-yl)benzamide Dihydrochloride], the IC50 is 0.34 nM. Turning to `CCN1[C@H](C)CN(c2ccc(C(=O)Nc3ccc(Cl)c(-c4ncc(C(C)C)[nH]4)c3)c(Cl)c2)C[C@@H]1C` [Example 192, N-(3-(5-isopropyl-1H-imidazol-2-yl)-4-chlorophenyl)-2-chloro-4-((3S,5R)-4-ethyl-3,5-dimethylpiperazin-1-yl)benzamide Dihydrochloride], the half-inhibitory concentration (IC50) was determined as 0.52 nM. Regarding `C[C@@H]1CN(c2cc(Cl)c(C(=O)Nc3ccc(Cl)c(-c4ncc(C5CC5)[nH]4)c3)cc2F)C[C@H](C)N1C` [Example 193, N-(3-(5-cyclopropyl-1H-imidazol-2-yl)-4-chlorophenyl)-2-chloro-5-fluoro-4-((3S,5R)-3,4,5-trimethylpiperazin-1-yl)benzamide Dihydrochloride], the IC50 came to 0.56 nM. Still for that read-out and setting: the value for `CCN1[C@H](C)CN(c2ccc(C(=O)Nc3ccc(Cl)c(-c4ncc(C5CC5)[nH]4)c3)c(Cl)c2)C[C@@H]1C` [Example 194, N-(3-(5-cyclopropyl-1H-imidazol-2-yl)-4-chlorophenyl)-2-chloro-4-((3S,5R)-4-ethyl-3,5-dimethylpiperazin-1-yl)benzamide Dihydrochloride] was 0.63 nM; that for `CCN1[C@H](C)CN(c2ccc(C(=O)Nc3ccc(Cl)c(-c4nc5cscc5[nH]4)c3)c(Cl)c2)C[C@@H]1C` [Example 203, N-(3-(1H-thieno[3,4-d]imidazol-2-yl)-4-chlorophenyl)-2-chloro-4-((3S,5R)-4-ethyl-3,5-dimethylpiperazin-1-yl)benzamide] was 0.29 nM.
